Measured values reported in US20250186409A1, “5-AMINOHEXAHYDRO-6,7,8-TRIHYDROXY-3H-OXAZOLO[3,4-A]PYRIDIN-3-ONE DERIVATIVES DERIVATIVES AS TLR4 MODULATORS FOR THE TREATMENT OF IMMUNE DISEASES” (CONSEJO SUPERIOR DE INVESTIGACIONES CIENTÍFICAS (CSIC), priority 2021, published 2025).
Entries after “also recorded” stand apart in the source; their conditions may differ.

Assays:
[1] = system: glycosidases (human fibroblast lysates); assay: Stability of the glycosidic linkage to glycosidases on incubation with human fibroblast lysates; assay type: in vitro ADME; conditions: 4 h, 37° C., pH 4.5, compound solution 200 μM, gas chromatography
Experimental: The stability of the glyosidic linkage in compounds 2, 4, 6, 8, 10, 12, 14, 16, 18, 20, 22, 25, 27, 29, 32 and 34 selected as representative examples, upon incubation with human fibroblast lysates for 4 h was checked. For such purpose, cells were scraped into ice-cold H2O (10^6 cells mL^−1) and lysed by sonication. Insoluble materials were removed by centrifugation at 15,000 rpm for 5 min and protein concentrations were determined with Protein Assay Rapid Kit (WAKO, Tokyo, Japan). 10 μL of the lysates in 0.1% Triton X-100 in distilled water were incubated at 37° C. with 20 μL of the compound solution (200 μM) in 0.1 M citrate buffer, pH 4.5. In control experiments, the activity of several lysosomas glycosidases was confirmed using fluorescent substrates. The substrates were 4-methylumbelliferone (4-MU)-conjugated β-D-glucopyranoside (for GCase), α-D-glucopyranoside (for α-glucosidase), α-D-galactopyranoside (for α-Galase) and β-D-galactopyranoside (for β-galactosidase). The liberated 4-methylumbelliferone was measured in the black-well plate with a Perkin Elmer Luminescence Spectrometer (excitation wavelength: 340 nm; emission: 460 nm). No traces of the free polysubstituted 2-oxa-3-oxoindolizidine, which would result from hydrolysis of the glycolipid mimetics, was detected by gas chromatography upon trimethylsilylation, confirming the stability of the compounds to the action of the glycosidases.

Splenocytes [2] = assay: Suppression of LPS-induced inflammation (splenocytes in vitro); assay type: cell-based, mouse; conditions: splenocytes treated concurrently with compound and LPS, FIG. 1
Experimental: FIG. 1. […] Splenocytes were treated concurrently with the compounds of the invention and LPS to assess the suppressive function of compounds on LPS-induced inflammation, with several compounds showing prominent suppressive function.
(§1) The whole spleen was surgically removed from a mouse and mechanically dissociated into a single cell suspension of splenocytes, which were then cultured in the complete RPMI 1640 medium (cRPMI). Human peripheral blood mononuclear cells (PBMCs) from healthy volunteers were collected from whole blood through gradient-centrifugation with Histopaque-1077 (Sigma-Aldrich).
Splenocytes were treated concurrently with the compounds of the invention and LPS to assess the suppressive function of compounds on LPS-induced inflammation.

[3] = system: bone marrow-derived macrophages (BMDM); assay: Suppression of LPS-induced inflammation (BMDM in vitro); assay type: cell-based; conditions: FIG. 2; for suppression of IL-6 / suppression of TNFα: LPS-induced, BMDM; for suppression of IL-6: 50 μM; for suppression of TNFα: 10 and 50 μM
From the text: Since macrophage is the major responder to LPS-induced inflammation, we assessed the capability of selected compounds to suppress LPS-induced inflammation in bone marrow-derived macrophages (BMDM).

[4] = system: ERK and p38 of the MAPK family, JNK and STAT3; assay: Signal transduction by multiplex bead array (phosphorylation versus LPS treatment alone); assay type: cell-based; conditions: compared to LPS treatment alone, 30 min post-treatment, FIG. 4
From the text: FIG. 4. […] Compounds 4 and 14, the representative compounds of the invention, were examined in term of signal transduction to explore how the new compounds exert their suppressive effect, using the multiplex bead array.
Using the multiplex bead array, we examined how the new compounds might exert their suppressive effect in term of signal transduction.

[5] = system: OVA-induced AHR mouse model; assay: OVA-induced airway hyperreactivity (AHR) and airway inflammation mouse model; assay type: in vivo; conditions: for suppression of OVA-induced airway hyperreactivity (AHR): OVA-induced AHR mouse model, FIG. 7; for suppression of IL-4 mRNA level in lungs / suppression of IL-13 mRNA level in lungs: lung mRNA, FIG. 10
Experimental: For ovalbumin (OVA) challenge, mice were sensitized intraperitoneally (i.p.) with 50 μg of OVA with 2% alhydrogel adjuvant (InvivoGen). Mice were challenged three times with 50 μg of OVA on day 7 post-sensitization, either daily or every other day. Mice were sacrificed the day after the last OVA challenge.
Mice were anesthetized with 100 mg per kg body weight pentobarbital (Sigma-Aldrich), tracheotomised and mechanically ventilated via the FinePointe RC system (Buxco Research Systems, Wilmington, NC). Lung function was assessed by measuring lung resistance and dynamic compliance in response to increasing doses of aerosolized methacholine (1.25-40 mg/mL, Sigma-Aldrich).
Upon exposure of the trachea, the lungs were lavaged twice with 1 mL of PBS supplemented with 2% fetal calf serum (FCS). BALF was pooled and BAL cells were pelleted by centrifugation and fixed onto cytospin slides. The slides were stained with Diff-Quik solution (Polysciences Inc) and BAL differential cell count was performed.
Using the Th2 OVA-induced AHR mouse model, we assessed the capability of selected compounds 14 and 29 in suppressing Th2 inflammation.

B6 mice [6] = assay: Suppression of LPS-induced inflammation in vivo; conditions: injected twice in a half hour time after LPS-treatment, FIG. 3
Experimental: FIG. 3. […] The in vivo capability of compound 29 in suppressing LPS-induced inflammation in B6 mice was assessed as indicated in the scheme.
To determine the anti-inflammatory function in vivo, we assessed the capability of compound 29 in suppressing LPS-induced inflammation in B6 mice.

Splenocytes [7] = assay: Immune-stimulating function of compounds alone (splenocytes in vitro); assay type: cell-based, mouse; conditions: splenocytes treated with compound alone, FIG. 6
Experimental: FIG. 6. […] Splenocytes were treated with the compounds of the invention alone to assess the immune-stimulating function of the compounds.
as §1
Splenocytes were treated with the compounds of the invention alone to assess the immune-stimulating function of the compounds by measuring their ability to promote the secretions of IFN-γ and IL-4.

B6 mice [8] = assay: Adjuvancy function of compounds in vivo (serum IFNγ and IL-4); conditions: FIG. 11
Experimental: FIG. 11. […] The adjuvancy capability of the selected compound 29 in vivo was assessed by measuring the serum level of IFNγ and IL-4 induced after injecting them into B6 mice.
Besides assessing the ability of the new compounds to suppress inflammation, we also looked into their function to act as adjuvants, i.e. their ability to promote desirable immunological trends in the development of vaccines. We measured the in vivo adjuvancy capability of selected compounds 29 in inducing IFNγ and IL-4 in B6 mice (FIG. 11).

[9] = bronchoalveolar lavage fluid, FIG. 8

With CCOP(=O)(N[C@@H]1C(O)[C@@H](O)[C@H](O)C2COC(=O)N21)OCC (stereo partly shown) [Compound 2] the “free polysubstituted 2-oxa-3-oxoindolizidine from hydrolysis of the glycolipid mimetic (stability to glycosidases)” value [1] was “No traces”.
For CCCCCCCCOP(=O)(N[C@@H]1C(O)[C@@H](O)[C@H](O)C2COC(=O)N21)OCCCCCCCC (stereo partly shown) [Compound 4], the “free polysubstituted 2-oxa-3-oxoindolizidine from hydrolysis of the glycolipid mimetic (stability to glycosidases)” value [1] was “No traces”, the “suppression of LPS-induced inflammation” value (Splenocytes [2]) was “prominent inflammation-suppressing function” and the “suppression of LPS-induced inflammation in BMDM” value [3] was “efficient in suppressing LPS-induced inflammation”. The “suppression of IL-6” value [3] was “significant suppression”, the “suppression of TNFα” value [3] was “significant suppression” and the “phosphorylation of ERK” value [4] was “significantly reduced”. For the same molecule, the “phosphorylation of JNK” value [4] was “but not JNK” and the “phosphorylation of p38” value [4] was “significantly reduced”.
In the case of CCCCCCCCCCCCOP(=O)(N[C@@H]1C(O)[C@@H](O)[C@H](O)C2COC(=O)N21)OCCCCCCCCCCCC (stereo partly shown) [Compound 6], the “free polysubstituted 2-oxa-3-oxoindolizidine from hydrolysis of the glycolipid mimetic (stability to glycosidases)” value [1] is reported as “No traces” and the “suppression of LPS-induced inflammation” value (Splenocytes [2]) is reported as “prominent inflammation-suppressing function”.
With CCCCNS(=O)(=O)N[C@@H]1C(O)[C@@H](O)[C@H](O)C2COC(=O)N21 (stereo partly shown) [Compound 8] the “free polysubstituted 2-oxa-3-oxoindolizidine from hydrolysis of the glycolipid mimetic (stability to glycosidases)” value [1] was “No traces”.
CCCCCCCCNS(=O)(=O)N[C@@H]1C(O)[C@@H](O)[C@H](O)C2COC(=O)N21 (stereo partly shown) [Compound 10] was tested, and the “free polysubstituted 2-oxa-3-oxoindolizidine from hydrolysis of the glycolipid mimetic (stability to glycosidases)” value [1] was “No traces”.
With CCCCCCCCCCCCNS(=O)(=O)N[C@@H]1C(O)[C@@H](O)[C@H](O)C2COC(=O)N21 (stereo partly shown) [Compound 12] the “free polysubstituted 2-oxa-3-oxoindolizidine from hydrolysis of the glycolipid mimetic (stability to glycosidases)” value [1] was “No traces”.
For CCCCCCCCCCCCCCCCNS(=O)(=O)N[C@@H]1C(O)[C@@H](O)[C@H](O)C2COC(=O)N21 (stereo partly shown) [Compound 14], the “free polysubstituted 2-oxa-3-oxoindolizidine from hydrolysis of the glycolipid mimetic (stability to glycosidases)” value [1] was “No traces”, the “suppression of LPS-induced inflammation” value (Splenocytes [2]) was “prominent inflammation-suppressing function” and the “suppression of LPS-induced inflammation in BMDM” value [3] was “efficient in suppressing LPS-induced inflammation”. The “suppression of IL-6” value [3] was “significant suppression”, the “suppression of TNFα” value [3] was “significant suppression” and the “phosphorylation of ERK” value [4] was “significantly reduced”. For the same molecule, the “phosphorylation of JNK” value [4] was “but not JNK”, the “phosphorylation of STAT3” value [4] was “significant reduction” and the “phosphorylation of p38” value [4] was “significantly reduced”. For the same molecule, the “suppression of OVA-induced airway hyperreactivity (AHR)” value [5] was “can suppress AHR onset”, the “suppression of IL-4 mRNA level in lungs” value [5] was “significantly suppressed” and the “suppression of IL-13 mRNA level in lungs” value [5] was “significantly suppressed”.
For CCCCCCCCOS(=O)(=O)N[C@@H]1C(O)[C@@H](O)[C@H](O)C2COC(=O)N21 (stereo partly shown) [Compound 16], the “free polysubstituted 2-oxa-3-oxoindolizidine from hydrolysis of the glycolipid mimetic (stability to glycosidases)” value [1] was “No traces”.
CCCCCCCCCCCCOS(=O)(=O)N[C@@H]1C(O)[C@@H](O)[C@H](O)C2COC(=O)N21 (stereo partly shown) [Compound 18] was tested, and the “free polysubstituted 2-oxa-3-oxoindolizidine from hydrolysis of the glycolipid mimetic (stability to glycosidases)” value [1] was “No traces”.
CCCCCCCCCCCCCCCCOS(=O)(=O)N[C@@H]1C(O)[C@@H](O)[C@H](O)C2COC(=O)N21 (stereo partly shown) [Compound 20] was tested, and the “free polysubstituted 2-oxa-3-oxoindolizidine from hydrolysis of the glycolipid mimetic (stability to glycosidases)” value [1] was “No traces”.
For CCCCCCCCS(=O)(=O)N[C@@H]1C(O)[C@@H](O)[C@H](O)C2COC(=O)N21 (stereo partly shown) [Compound 22], the “free polysubstituted 2-oxa-3-oxoindolizidine from hydrolysis of the glycolipid mimetic (stability to glycosidases)” value [1] was “No traces”.
With CCCCCCCCNC(=[Se])N[C@@H]1C(O)[C@@H](O)[C@H](O)C2COC(=O)N21 (stereo partly shown) [Compound 25] the “free polysubstituted 2-oxa-3-oxoindolizidine from hydrolysis of the glycolipid mimetic (stability to glycosidases)” value [1] was “No traces”.
In the case of CCCCCCCCCCCCNC(=S)N[C@@H]1C(O)[C@@H](O)[C@H](O)C2COC(=O)N21 (stereo partly shown) [Compound 27], the “free polysubstituted 2-oxa-3-oxoindolizidine from hydrolysis of the glycolipid mimetic (stability to glycosidases)” value [1] is reported as “No traces” and the “suppression of LPS-induced inflammation” value (Splenocytes [2]) is reported as “prominent inflammation-suppressing function”.
In the case of CCCCCCCCCCCCNC(=[Se])N[C@@H]1C(O)[C@@H](O)[C@H](O)C2COC(=O)N21 (stereo partly shown) [Compound 29], the “free polysubstituted 2-oxa-3-oxoindolizidine from hydrolysis of the glycolipid mimetic (stability to glycosidases)” value [1] is reported as “No traces”, the “suppression of LPS-induced inflammation” value (Splenocytes [2]) is reported as “prominent inflammation-suppressing function” and the “suppression of LPS-induced serum TNFα” value (B6 mice [6]) is reported as “significantly suppressed; also recorded: significantly suppressing”. For the same molecule, the IFNγ secretion (Splenocytes [7]) was “effective in promoting; also recorded: induced significant IFNγ secretion”, the IL-4 secretion (Splenocytes [7]) was “but not IL-4” and the “suppression of OVA-induced airway hyperreactivity (AHR)” value [5] was “suppress AHR significantly”. The “suppression of IL-4 level in BALF” value [5, 9] was “suppress both IL-13 and IL-4 levels significantly”, the “suppression of IL-13 level in BALF” value [5, 9] was “suppress both IL-13 and IL-4 levels significantly” and the “suppression of IL-4 mRNA level in lungs” value [5] was “significantly suppressed”. For the same molecule, the “suppression of IL-13 mRNA level in lungs” value [5] was “significantly suppress; also recorded: significantly suppressed”, the “suppression of IL-13 protein level in lungs” value ([5]; lung protein, FIG. 9) was “significantly suppress; also recorded: significant suppression” and the “induction of serum IFNγ” value (B6 mice [8]; 2 hours after injection) was “significant capability”. For the same molecule, the “induction of serum IL-4” value (B6 mice [8]; 2 hours after injection) was “significant capability” and the “serum IFNγ level” value (B6 mice [8]; 18 hours after injection) was “significant detectable level”.
With CCCCCCCCCCCCCCCCNC(=[Se])N[C@@H]1C(O)[C@@H](O)[C@H](O)C2COC(=O)N21 (stereo partly shown) [Compound 32] the “free polysubstituted 2-oxa-3-oxoindolizidine from hydrolysis of the glycolipid mimetic (stability to glycosidases)” value [1] was “No traces”.
For CCCCCCCCCCCCOC(=S)N[C@@H]1C(O)[C@@H](O)[C@H](O)C2COC(=O)N21 (stereo partly shown) [Compound 34], the “free polysubstituted 2-oxa-3-oxoindolizidine from hydrolysis of the glycolipid mimetic (stability to glycosidases)” value [1] was “No traces”.
